Measured values: PMC7438494 (Communications Biology, 2020)
Where “and” joins values, the source holds several entries; their conditions need not be identical. Equal values may be shown once. Read-outs that look alike come from different tables or passages of the source.

Biological target: human ATP synthase (Homo sapiens, UniProt P00846+P05496)
Test: biochemical
Format: biochemical
[1] = BDQ 0.65 uM, […], frozen human mito, BDQ in DMSO
[2] = BDQ 0.65 uM, cyanide sensitive, 60 min, frozen human mito, BDQ in DMSO
[3] = BDQ 1 uM, […], frozen human mito, BDQ in DMSO
[4] = BDQ 1 uM, cyanide sensitive, human
[5] = BDQ 2 uM, […], frozen human mito, BDQ in DMSO
[6] = BDQ 5 uM, […], frozen human mito, BDQ in DMSO
[7] = BDQ 5 uM, cyanide sensitive, human
[8] = BDQ 10 uM, […], frozen human mito, BDQ in DMSO
[9] = BDQ 10 uM, cyanide sensitive, human
[10] = Human Mito, 1st exp (12-14-18), Bedaquiline 0.05 μM, 60 min
[11] = Human Mito, 2nd exp (12-17-18), Bedaquiline 0.05 μM, 60 min

COc1nc2ccc(Br)cc2cc1[C@@H](c1ccccc1)[C@@](O)(CCN(C)C)c1cccc2ccccc12 [BDQ, Bedaquiline]
cyanide sensitive % inhibition (BDQ 0.5 uM, cyanide sensitive, human): 66.6% and 70.0% and 42.0% and 48.8% and 35.1%
% activity [1]: 30.2506%
% inhibition [1]: 69.7494%
ATP produced, nmol/min/mg [1]: 2.55 nmol/min/mg
ATP produced, pmol/min/mg [1]: 2547.17 pmol/min/mg
activity at 0.65 µM (BDQ 0.65 uM, […], frozen human mito, BDQ in DMSO, read-out: % activity): 30.3%
activity at 0.65 µM (BDQ 0.65 uM, […], frozen human mito, BDQ in DMSO, read-out: % activity, cyanide sensitive): 18.5%
inhibition at 0.65 µM (BDQ 0.65 uM, […], frozen human mito, BDQ in DMSO, read-out: % inhibition): 69.7%
inhibition at 0.65 µM (BDQ 0.65 uM, […], frozen human mito, BDQ in DMSO, read-out: % inhibition, cyanide sensitive): 81.5%
cyanide sensitive ATP produced, nmol/min/mg [2]: 1.33 nmol/min/mg
cyanide sensitive ATP produced, pmol/min/mg [2]: 1329.08 pmol/min/mg
cyanide sensitive % inhibition (BDQ 0.85 uM, cyanide sensitive, human): 67.5% and 100.0% and 66.9%
% activity [3]: 17.1322%
% activity, cyanide sensitive [3]: 3.117%
% inhibition [3]: 82.8678%
ATP produced, nmol/min/mg [3]: 1.44 nmol/min/mg
ATP produced, pmol/min/mg [3]: 1442.57 pmol/min/mg
activity at 1 µM (BDQ 1 uM, […], frozen human mito, BDQ in DMSO, read-out: % activity): 17.1%
inhibition at 1 µM (BDQ 1 uM, […], frozen human mito, BDQ in DMSO, read-out: % inhibition): 82.9%
inhibition at 1 µM (BDQ 1 uM, […], frozen human mito, BDQ in DMSO, read-out: % inhibition, cyanide sensitive): 96.9%
cyanide sensitive ATP produced, pmol/min/mg (BDQ 1 uM, cyanide sensitive, 60 min, frozen human mito, BDQ in DMSO): 224.48 pmol/min/mg
cyanide sensitive % activity [4]: -0.8% and 8.7% and -0.171%
cyanide sensitive % inhibition [4]: 91.3% and 100.2%
inhibition at 1 µM (BDQ 1 uM, cyanide sensitive, human, read-out: cyanide sensitive % inhibition): 101%
% activity [5]: 12.0221%
% inhibition [5]: 87.9779%
ATP produced, nmol/min/mg [5]: 1.01 nmol/min/mg
ATP produced, pmol/min/mg [5]: 1012.29 pmol/min/mg
activity at 2 µM (BDQ 2 uM, […], frozen human mito, BDQ in DMSO, read-out: % activity): 12%
activity at 2 µM (BDQ 2 uM, […], frozen human mito, BDQ in DMSO, read-out: % activity, cyanide sensitive): -2.86%
inhibition at 2 µM (BDQ 2 uM, […], frozen human mito, BDQ in DMSO, read-out: % inhibition): 88%
inhibition at 2 µM (BDQ 2 uM, […], frozen human mito, BDQ in DMSO, read-out: % inhibition, cyanide sensitive): 103%
cyanide sensitive ATP produced, pmol/min/mg (BDQ 2 uM, cyanide sensitive, 60 min, frozen human mito, BDQ in DMSO): -205.80 pmol/min/mg
cyanide sensitive % inhibition (BDQ 2 uM, cyanide sensitive, human): 98.3% and 117.8% and 98.9% and 97.2% and 102.7%
% activity [6]: 17.1136%
% activity, cyanide sensitive [6]: 3.095%
% inhibition [6]: 82.8864%
ATP produced, nmol/min/mg [6]: 1.44 nmol/min/mg
ATP produced, pmol/min/mg [6]: 1441.00 pmol/min/mg
activity at 5 µM (BDQ 5 uM, […], frozen human mito, BDQ in DMSO, read-out: % activity): 17.1%
inhibition at 5 µM (BDQ 5 uM, […], frozen human mito, BDQ in DMSO, read-out: % inhibition): 82.9%
inhibition at 5 µM (BDQ 5 uM, […], frozen human mito, BDQ in DMSO, read-out: % inhibition, cyanide sensitive): 96.9%
cyanide sensitive ATP produced, pmol/min/mg (BDQ 5 uM, cyanide sensitive, 60 min, frozen human mito, BDQ in DMSO): 222.91 pmol/min/mg
cyanide sensitive % activity [7]: -7.0% and -10.1% and -4.1% and -2.6% and -5.6%
cyanide sensitive % inhibition [7]: 107.0% and 110.1% and 102.6% and 105.6%
inhibition at 5 µM (BDQ 5 uM, cyanide sensitive, human, read-out: cyanide sensitive % inhibition): 104%
% activity [8]: 14.9815%
% activity, cyanide sensitive [8]: 0.6024%
% inhibition [8]: 85.0185%
ATP produced, nmol/min/mg [8]: 1.26 nmol/min/mg
ATP produced, pmol/min/mg [8]: 1261.47 pmol/min/mg
activity at 10 µM (BDQ 10 uM, […], frozen human mito, BDQ in DMSO, read-out: % activity): 15%
inhibition at 10 µM (BDQ 10 uM, […], frozen human mito, BDQ in DMSO, read-out: % inhibition): 85%
inhibition at 10 µM (BDQ 10 uM, […], frozen human mito, BDQ in DMSO, read-out: % inhibition, cyanide sensitive): 99.4%
cyanide sensitive ATP produced, pmol/min/mg (BDQ 10 uM, cyanide sensitive, 60 min, frozen human mito, BDQ in DMSO): 43.39 pmol/min/mg
cyanide sensitive % activity [9]: -1.4%
cyanide sensitive % inhibition [9]: 101.4%
inhibition at 10 µM (BDQ 10 uM, cyanide sensitive, human, read-out: cyanide sensitive % inhibition): 102%
Cyanide sensitive [10]: 4.658 nmol/min/mg
activity at 0.05 µM [10]: 64.1%
Cyanide sensitive (Human Mito, 1st exp (12-14-18), Bedaquiline 0.1 μM, 60 min): 6.127 nmol/min/mg
activity at 0.1 µM (Human Mito, 1st exp (12-14-18), Bedaquiline 0.1 μM, 60 min, read-out: % activity): 84.3%
Cyanide sensitive (Human Mito, 1st exp (12-14-18), Bedaquiline 0.2 μM, 60 min): 4.027 nmol/min/mg
activity at 0.2 µM (Human Mito, 1st exp (12-14-18), Bedaquiline 0.2 μM, 60 min, read-out: % activity): 55.4%
Cyanide sensitive (Human Mito, 1st exp (12-14-18), Bedaquiline 0.5 μM, 60 min): 2.18 nmol/min/mg
activity at 0.5 µM (Human Mito, 1st exp (12-14-18), Bedaquiline 0.5 μM, 60 min, read-out: % activity): 30%
Cyanide sensitive (Human Mito, 1st exp (12-14-18), Bedaquiline 0.65 μM, 60 min): -0.9359 nmol/min/mg
activity at 0.65 µM (Human Mito, 1st exp (12-14-18), Bedaquiline 0.65 μM, 60 min, read-out: % activity): -12.9%
Cyanide sensitive (Human Mito, 1st exp (12-14-18), Bedaquiline 0.85 μM, 60 min): -0.002656 nmol/min/mg
activity at 0.85 µM (Human Mito, 1st exp (12-14-18), Bedaquiline 0.85 μM, 60 min, read-out: % activity): -0.0365%
Cyanide sensitive (Human Mito, 1st exp (12-14-18), Bedaquiline 2 μM, 60 min): -1.2927 nmol/min/mg
activity at 2 µM (Human Mito, 1st exp (12-14-18), Bedaquiline 2 μM, 60 min, read-out: % activity): -17.8%
Cyanide sensitive (Human Mito, 1st exp (12-14-18), Bedaquiline 5 μM, 60 min): -0.5097 nmol/min/mg
activity at 5 µM (Human Mito, 1st exp (12-14-18), Bedaquiline 5 μM, 60 min, read-out: % activity): -7.01%
activity at 0.1 µM (Human Mito, 1st exp (18_12_14), BDQ 0.1 uM, read-out: Cyanide sensitive % activity): 73.2%
activity at 0.2 µM (Human Mito, 1st exp (18_12_14), BDQ 0.2 uM, read-out: Cyanide sensitive % activity): 57.7%
activity at 0.5 µM (Human Mito, 1st exp (18_12_14), BDQ 0.5 uM, read-out: Cyanide sensitive % activity): 44%
activity at 0.85 µM (Human Mito, 1st exp (18_12_14), BDQ 0.85 uM, read-out: Cyanide sensitive % activity): 16.6%
activity at 2 µM (Human Mito, 1st exp (18_12_14), BDQ 2 uM, read-out: Cyanide sensitive % activity): -8.33%
Cyanide sensitive [11]: 3.788 nmol/min/mg
activity at 0.05 µM [11]: 43.8%
Cyanide sensitive (Human Mito, 2nd exp (12-17-18), Bedaquiline 0.1 μM, 60 min): 5.369 nmol/min/mg
activity at 0.1 µM (Human Mito, 2nd exp (12-17-18), Bedaquiline 0.1 μM, 60 min, read-out: % activity): 62%
